Assay results: patent US9006185B2, “Use of cell-permeable peptide inhibitors of the JNK signal transduction pathway for the treatment of various diseases” (Xigen Inflammation Ltd., priority 2008, dated 2015)

Key:
Assay type in all cases: cell-based
TC-3 cells [1] = test: Cellular import of fluorescein-labeled TAT and TAT-IB1(s) peptides
Procedure: The ability of the L- and D-enantiomeric forms of TAT and TAT-IB1(s) peptides (“TAT-IB peptides”) to enter cells was evaluated. L-TAT, D-TAT, L-TAT-IB1(s), and D-TAT-IB1(s) peptides [SEQ ID NOs: 5, 6, 9 and 12, respectively] were labeled by N-terminal addition of a glycine residue conjugated to fluorescein. Labeled peptides (1 μM) were added to TC-3 cell cultures, which were maintained as described in Example 3. At predetermined times cells were washed with PBS and fixed for five minutes in ice-cold methanol-acetone (1:1) before being examined under a fluorescence microscope. Fluorescein-labeled BSA (1 μM, 12 moles/mole BSA) was used as a control.
Little to no signal was present at 48 hours.
Fluorescent signals from these all-D retro-inverso peptides were still very strong 1 week later, and the signal was only slightly diminished at 2 weeks post treatment.

TC-3 cells [2] = test: IL-1 induced pancreatic beta-cell death, peptide treatment; details: one single addition 1 μM, 15 days of incubation with IL-1
Procedure: Inhibition of IL-1 induced pancreatic beta-cell death by the D-TAT-IB1(s) peptide was analyzed. TC-3 cells were incubated as described above for 30 minutes with one single addition of the indicated peptides (1, μM), then IL-1 (10 ng/ml) was added.
Apoptotic cells were then counted after two days of incubation with IL-1 by use of Propidium Iodide and Hoechst 33342 nuclear staining. A minimum of 1,000 cells were counted for each experiment. Standard Error of the Means (SEM) are indicated, n=5.
Long term inhibition of IL-1P induced cell-death by the D-TAT-IB1 peptide was also analyzed. TC-3 cells were incubated as above for 30 minutes with one single addition of the indicated peptides (1 μM), then IL-1 (10 ng/ml) was added, followed by addition of the cytokine every two days. Apoptotic cells were then counted after 15 days of incubation with IL-1 by use of propidium iodide and Hoechst 33342 nuclear staining. […] A minimum of 1.000 cells were counted for each experiment.

[3] = test system: endogenous JNK in HepG2 cells; test: AlphaScreen, endogenous IL-1 dependent JNK activity in HepG2 cells; details: FIG. 3 panel d
Procedure: HepG2 cells were seeded at 3,000 cells/well the day prior the experiment. Then, increasing concentrations of either interleukin-1 [IL-1 beta v)] or tumor necrosis factor [TNFalpha (•)] (a) were added to activate JNK for 30 minutes. Cells were lysed in 20 mM Hepes, 0.5% Tween pH 7.4 and processed for AlphaScreen JNK. (b) Z′ for the JNK activity induced by 10 ng/ml IL-1 and measured in 384 wells/plate (n=96). (c) Inhibition of endogenous IL-1 beta-induced JNK activity with chemical JNK inhibitors [staurosporin (°) and SP600125 (•)]. (d) Effect of peptidic inhibitors L-TAT-IB1(s) according to SEQ ID NO: 9 [here abbreviated as L-JNKi (ν)) and D-TAT-IB1(s) according to SEQ ID NO: 11 (here abbreviated as D-JNKi (♦)) and JBDs (•) (corresponds to L-JNKI without the TAT sequence)] on IL-1 dependent JNK activity. All panels are representative of three independent experiments (n=3). […]
Principle: AlphaScreen is a non-radioactive bead-based technology used to study biomolecular interactions in a microplate format. The acronym ALPHA stands for Amplified Luminescence Proximity Homogenous Assay. […]
Kinase reagents (B-GST-cJun, anti P-cJun antibody and active JNK3) were first diluted in kinase buffer (20 mM Tris-HCl pH 7.6, 10 mM MgCl2, 1 mM DTT, 100 μM Na3VO4, 0.01% Tween-20) and added to wells (15 μl). […] AlphaScreen signal was analyzed directly on the Fusion or En Vision apparatus.

[4] = test system: Primary cultured macrophages
Procedure: FIG. 24 Primary cultured macrophages were incubated with XG-102 (SEQ ID NO: 11) and extensively washed.

CC(C)C[C@@H](NC(=O)[C@@H](Cc1ccccc1)NC(=O)[C@H]1CCCN1C(=O)[C@@H](CCC(N)=O)NC(=O)[C@H](NC(=O)[C@H]1CCCN1C(=O)[C@@H](CCCNC(=N)N)NC(=O)[C@@H](CO)NC(=O)[C@@H](CCC(N)=O)NC(=O)[C@H](N)CC(=O)O)C(C)C)C(=O)N[C@H](CC(N)=O)C(=O)N[C@H](CC(C)C)C(=O)N[C@@H](C(=O)N[C@@H](C(=O)N1CCC[C@@H]1C(=O)N[C@H](CCCNC(=N)N)C(=O)N[C@H](CCCCN)C(=O)N1CCC[C@@H]1C(=O)N[C@H](CCCNC(=N)N)C(=O)N1CCC[C@@H]1C(=O)N1CCC[C@@H]1C(=O)N[C@H](CCCNC(=N)N)C(=O)N[C@H](CCCNC(=N)N)C(=O)N[C@H](CCCNC(=N)N)C(=O)N[C@H](CCC(N)=O)C(=O)N[C@H](CCCNC(=N)N)C(=O)N[C@H](CCCNC(=N)N)C(=O)N[C@H](CCCCN)C(=O)N[C@H](CCCCN)C(=O)N[C@H](CCCNC(=N)N)C(=O)NCC(=O)O)[C@H](C)O)[C@H](C)O [XG-102]
entry into cells (fluorescence microscopy) (TC-3 cells [1]): efficiently and rapidly (less than five minutes) entered cells
stability inside the cells (TC-3 cells [1]): extremely stable inside the cells
long term protection from IL-1 induced cell death (TC-3 cells [2]): able to confer long term (15 day) protection
inhibition of IL-1 dependent endogenous JNK activity [3]: effectively inhibits JNK activity, even better than L-TAT-IB1(s)
incorporation into primary macrophages [4]: strongly incorporated into primary macrophages
